≈ marks a conversion by molar mass, not a printed value. Read-outs that look alike come from different tables or passages of the source.
Tests used:
[1] = system: Staphylococcus aureus 6538p; assay: In vitro antibacterial activity (MIC, agar dilution), Biological Example 1; assay type: cell-based; details: 18 h, Table 25, read-out: Minimum Inhibitory Concentration
[2] = system: Staphylococcus aureus giorgio; assay: as above; assay type: cell-based; details: 18 h, Table 25, read-out: Minimum Inhibitory Concentration
Staphylococcus aureus 77 = assay: as above; assay type: cell-based; details: 18 h; Staphylococcus aureus 77, Table 25; read-out: Minimum Inhibitory Concentration
[3] = system: Staphylococcus aureus 241; assay: as above; assay type: cell-based; details: 18 h; Staphylococcus aureus 241, Table 25; read-out: Minimum Inhibitory Concentration
[4] = system: Staphylococcus epidermidis 887E; assay: as above; assay type: cell-based; details: 18 h, Table 25, read-out: Minimum Inhibitory Concentration
[5] = system: Staphylococcus epidermidis 178; assay: as above; assay type: cell-based; details: 18 h; Staphylococcus epidermidis 178, Table 25; read-out: Minimum Inhibitory Concentration
[6] = system: Streptococcus faecalis 29212; assay: as above; assay type: cell-based; details: Enterococcus faecalis, 18 h; Streptococcus faecalis 29212, Table 25; read-out: Minimum Inhibitory Concentration
Bacillus subtilis 6633 = assay: as above; assay type: cell-based; details: 18 h; Bacillus subtilis 6633, Table 25; read-out: Minimum Inhibitory Concentration
Micrococcus luteus 9341 = assay: as above; assay type: cell-based; details: 18 h; Micrococcus luteus 9341, Table 25; read-out: Minimum Inhibitory Concentration
Escherichia coli 10536 = assay: as above; assay type: cell-based; details: 18 h; Escherichia coli 10536, Table 25; read-out: Minimum Inhibitory Concentration
Escherichia coli 3190Y = assay: as above; assay type: cell-based; details: 18 h, Table 25, read-out: Minimum Inhibitory Concentration
Escherichia coli 851E = assay: as above; assay type: cell-based; details: 18 h, Table 25, read-out: Minimum Inhibitory Concentration
[7] = system: Escherichia coli TEM3 3455E; assay: microbe, parasite or virus in culture; assay type: cell-based; details: TEM33455E, 18 h, read-out: Minimum Inhibitory Concentration
[8] = system: Escherichia coli TEM5 3739E; assay: microbe, parasite or virus in culture; assay type: cell-based; details: TEM53739E, 18 h, read-out: Minimum Inhibitory Concentration
[9] = system: Escherichia coli TEM9 2639E; assay: microbe, parasite or virus in culture; assay type: cell-based; details: TEM92639E, 18 h, read-out: Minimum Inhibitory Concentration
[10] = system: Pseudomonas aeruginosa 1912E; assay: In vitro antibacterial activity (MIC, agar dilution), Biological Example 1; assay type: cell-based; details: 18 h; Pseudomonas aeruginosa 1912E, Table 25; read-out: Minimum Inhibitory Concentration
[11] = system: Pseudomonas aeruginosa 10145; assay: as above; assay type: cell-based; details: 18 h; Pseudomonas aeruginosa 10145, Table 25; read-out: Minimum Inhibitory Concentration
[12] = system: Acinetobacter calcoaceticus 15473; assay: as above; assay type: cell-based; details: 18 h; Acinetobacter calcoaceticus 15473, Table 25; read-out: Minimum Inhibitory Concentration
[13] = system: Citrobacter diversus 2046E; assay: as above; assay type: cell-based; details: Citrobacter koseri, 18 h, Table 25, read-out: Minimum Inhibitory Concentration
[14] = system: Enterobacter cloacae 1194E; assay: microbe, parasite or virus in culture; assay type: cell-based; details: 18 h, read-out: Minimum Inhibitory Concentration
Enterobacter cloacae P99 = assay: microbe, parasite or virus in culture; assay type: cell-based; details: P99, 18 h, read-out: Minimum Inhibitory Concentration
[15] = system: Klebsiella aerogenes 1976E; assay: In vitro antibacterial activity (MIC, agar dilution), Biological Example 1; assay type: cell-based; details: 18 h, Table 25, read-out: Minimum Inhibitory Concentration
[16] = system: Klebsiella aerogenes 1082E; assay: as above; assay type: cell-based; details: 18 h, Table 25, read-out: Minimum Inhibitory Concentration
[17] = system: Salmonella typimurium 14028; assay: as above; assay type: cell-based; details: 18 h; Salmonella typimurium 14028, Table 25; read-out: Minimum Inhibitory Concentration
Pharmacokinetic test = assay type: in vivo; details: rat, blood, 20 mg/kg, SD rats (male); for half-life: read-out: T1/2 (biological half life) (converted)
physchem = details: phosphate buffered solution
[18] = Moisture content according to hydration number; assay type: physicochemical; details: actual moisture content, methanesulfonate hydrates
Description: The moisture content of the hydrate varies with the hydration number (n) of the hydrated molecule. Since the molecular weight of 7-(4-amino-methyl-3-methyloxylminopyrrolidin-1-yl)-1-cyclopropyl-6-fluoro- 4-oxo-1,4-dihydro-1,8-naphthyridine-3-carboxylic acid methanesulfonate is 485.5, the moisture content of the hydrate for n equal to 1, 1.5, 2, 2.5, 3, 3.5 or 4 is calculated to be 3.6%, […], 6.9%, 8.5%, 10.0%, 11.5% or 12.9%, respectively. However, the actual moisture content may differ from the calculated moisture content depending on differences in recrystallization conditions, drying conditions, etc.

[19] = Equilibrium moisture content determination of hydrates; assay type: physicochemical
Description: Six saturated aqueous salt solutions were introduced into each desiccator to control the inner relative humidity to a specific value as represented in the following Table 28. Then, equilibrium moisture contents of 3 hydrate and 1.5 hydrate prepared in Examples 205 and 206, respectively, were determined at several relative humidities.
Specifically, 100 mg of the sample was spread on a preweighed Petri dish and the total weight was accurately measured, then three of the sample were placed in each desiccator of Table 28. The desiccators were allowed to stand at normal temperature for 7 days and then the sample was taken to be weighed. After 13 days had passed, one of the three samples inside each desiccator was taken and the moisture content of each was measured by the thermogravimetric analysis described in Test Example 2. Equilibrium moisture content at each relative humidity is represented in FIG. 3 (3 hydrate), and FIG. 4 (1.5 hydrate). […] Both hydrates are stable since they keep a constant equilibrium moisture content regardless of the relative humidity change.

[20] = Chemical stability under heating; details: for thermal stability: hydrate
Description: The anhydride and each of the hydrates was introduced into a glass vial and maintained at 70° C.

Structure (SMILES)	MIC [1] [µg/mL]	MIC [2] [µg/mL]	MIC (Staphylococcus aureus 77) [µg/mL]	MIC [3] [µg/mL]	MIC [4] [µg/mL]	MIC [5] [µg/mL]	MIC [6] [µg/mL]	MIC (Bacillus subtilis 6633) [µg/mL]	MIC (Micrococcus luteus 9341) [µg/mL]	MIC (Escherichia coli 10536) [µg/mL]	MIC (Escherichia coli 3190Y) [µg/mL]	MIC (Escherichia coli 851E) [µg/mL]	MIC [7] [µg/mL]	MIC [8] [µg/mL]	MIC [9] [µg/mL]	MIC [10] [µg/mL]	MIC [11] [µg/mL]	MIC [12] [µg/mL]	MIC [13] [µg/mL]	MIC [14] [µg/mL]	further results
CC(C)(C)ON=C1CN(c2nc3c(cc2F)c(=O)c(C(=O)O)cn3C2CC2)CC1CN (stereo not drawn) [Example 89, 7-(4-aminomethyl-3-t-butyloxyimino-pyrrolidin-1-yl)-1-cyclopropyl-6-fluoro-1,4-dihydro-4-oxo-1,8-naphthyridine-3-carboxylic acid]	≤ 0.008	≤ 0.008	≤ 0.008	1 (≈ 2.32 µM)	≤ 0.008	0.5 (≈ 1.16 µM)	0.063 (≈ 0.146 µM)	≤ 0.008	0.25 (≈ 0.579 µM)	0.016 (≈ 0.0371 µM)	0.016 (≈ 0.0371 µM)	0.063 (≈ 0.146 µM)	0.25 (≈ 0.579 µM)	0.13 (≈ 0.301 µM)	0.063 (≈ 0.146 µM)	2 (≈ 4.64 µM)	2 (≈ 4.64 µM)	0.031 (≈ 0.0718 µM)	0.13 (≈ 0.301 µM)	0.13 (≈ 0.301 µM)	MIC (Enterobacter cloacae P99): 0.016 µg/mL (≈ 0.0371 µM); MIC [15]: 0.5 µg/mL (≈ 1.16 µM); MIC [16]: 0.25 µg/mL (≈ 0.579 µM); MIC [17]: 0.13 µg/mL (≈ 0.301 µM); Cmax (Pharmacokinetic test; PO, read-out: Cmax (maximum blood concentration)): 4890 ± 2230 ng/mL; half-life (Pharmacokinetic test; PO): 6.69 ± 2.78 h; Tmax (Pharmacokinetic test; PO, read-out: Tmax (time showing maximum blood concentration)): 2.18 ± 0.77 h; bioavailability (Pharmacokinetic test; printed in the IV line, read-out: F (bioavailability)): > 100%; half-life (Pharmacokinetic test; IV): 2.29 ± 1.13 h
CON=C1CN(c2nc3c(cc2F)c(=O)c(C(=O)O)cn3C2CC2)CC1CN (stereo not drawn) [Tartarate]																					solubility (physchem; pH 2): 15.4 mg/mL (≈ 39500 µM); solubility (physchem; pH 7): 6.7 mg/mL (≈ 17200 µM)
CON=C1CN(c2nc3c(cc2F)c(=O)c(C(=O)O)cn3C2CC2)CC1CN (stereo not drawn) [4 hydrate, 7-(4-aminomethyl-3-methyloxylminopyrrolidin-1-yl)-1-cyclopropyl-6-fluoro-4-oxo-1,4-dihydro-1,8-naphthyridine-3-carboxylic acid methanesulfonate]																					Moisture Content [18]: 12-13%
C#CCCON=C1CN(c2nc3c(cc2F)c(=O)c(C(=O)O)cn3C2CC2)CC1CN (stereo not drawn) [Example 104]	≤ 0.008	≤ 0.008	≤ 0.008	8 (≈ 18.7 µM)	0.016 (≈ 0.0374 µM)	4 (≈ 9.36 µM)	0.031 (≈ 0.0725 µM)	≤ 0.008	0.13 (≈ 0.304 µM)	≤ 0.008	≤ 0.008	≤ 0.008	0.25 (≈ 0.585 µM)	0.13 (≈ 0.304 µM)	0.031 (≈ 0.0725 µM)	1 (≈ 2.34 µM)	1 (≈ 2.34 µM)	≤ 0.008	≤ 0.008	≤ 0.008	MIC (Enterobacter cloacae P99): 0.016 µg/mL (≈ 0.0374 µM); MIC [15]: 0.13 µg/mL (≈ 0.304 µM); MIC [16]: 0.031 µg/mL (≈ 0.0725 µM); MIC [17]: 0.031 µg/mL (≈ 0.0725 µM)
CON=C1CN(c2nc3c(cc2F)c(=O)c(C(=O)O)cn3C2CC2)CC1CN (stereo not drawn) [1.5 hydrate, 7-(4-aminomethyl-3-methyloxyiminopyrrolidin-1-yl)-1-cyclopropyl-6-fluoro-4-oxo-1,4-dihydro-1,8-naphthyridine-3-carboxylic acid methanesulfonate·1.5 hydrate]																					stability of hydrate towards relative humidity change [19]: stable; equilibrium moisture content ([19]; relative humidity 23 to 64%): around 5%; thermal stability compared with the anhydride ([20]; 70° C., Table 29): the same degree of thermal stability as the anhydride; thermal stability ([20]; 20160 min): 95.80%; thermal stability ([20]; 40320 min): 96.17%; thermal stability [20]: 100%; remaining at 168 h ([20]; thermal stability, 1 week, 70° C.): 97.2%; remaining at 504 h ([20]; thermal stability, 3 weeks, 70° C.): 97.2%; Moisture Content ([18]; hydrate): 4-6%
CON=C1CN(c2nc3c(cc2F)c(=O)c(C(=O)O)cn3C2CC2)CC1CN (stereo not drawn) [2 hydrate, 7-(4-aminomethyl-3-methyloxylminopyrrolidin-1-yl)-1-cyclopropyl-6-fluoro-4-oxo-1,4-dihydro-1,8-naphthyridine-3-carboxylic acid methanesulfonate]																					Moisture Content [18]: 6-8%

— patent publication US5776944A, “7-(4-aminomethyl-3-methyloxyiminopyrroplidin-1-yl)-1-cyclopropyl-6-flu oro-4-oxo-1,4-dihydro-1,8-naphthyridine-3-carboxylic acid and the process for the preparation thereof” (LG Chemical Ltd., priority 1994, dated 1998)
